These are literature values, as cited in PMC10401071 (Cancer Discovery, 2023).

SMILES strings stand for the structures.

The data set has as its system WDLPS and DDLPS. To be noted: patients with WDLPS and DDLPS; cited from earlier work.

On to `COc1cccc2c1C(=O)c1c(O)c3c(c(O)c1C2=O)C[C@@](O)(C(=O)CO)C[C@@H]3O[C@H]1C[C@H](N)[C@H](O)[C@H](C)O1` [doxorubicin], for which the overall survival is on record as around 9 months.
